Like-named read-outs stand apart in the source and are kept apart here.
Key:
[1] = test system: spleen lymphocytes cultured with PLP139-151; experiment: Inhibition effect for lymphocyte activation (antigen-specific division, 3H-thymidine uptake); type: cell-based; settings: female SJL/J mouse spleen lymphocytes, PLP139-151 stimulation, 5 days culture, read-out: IC 50 (inhibition of antigen-specific division of the lymphocytes)
Text: Immunizing a mounse with a partial peptide of a proteolipid protein (PLP), a central myelin protein, induces a chronic encephalomyelitis therein. Sampling lymphocytes from the spleen of the mouse and stimulating by an antigen in vitro allow the induction of antigen-specific activation and division of the lymphocyte. The effect of a drug to the reaction was examined to evaluate the inhibition effect of the drug for lymphocyte activation. Specifically, a female SJL/J mouse was immunized with an adjuvant containing a PLP partial peptide (PLP139-151) under ether anesthesia. On the day of immunization and 2 days thereafter, deactivated Bordetella pertussis (one billion/mouse) was intravenously administered. On 7th or 8th day after the immunization, the mouse was killed by ether anesthesia and then the spleen thereof was extracted to isolate spleen lymphocytes. […] The compound numbers are the same as those described in the previous list (hereinafter, the same).

[2] = test system: experimental encephalomyelitis model (PLP peptide p139-151 immunized mouse); experiment: Effect in an experimental encephalomyelitis model; type: in vivo; settings: female SJL/J mouse, 200 mg/kg orally from 5th day to 12th day after initial sensitization, FIG. 2
Experimental: 100 μl of a Freund's complete adjuvant (Difco, containing 0.6 mg/ml of M. tuberculosis H37Ra) containing the PLP peptide (p139-151, Toray Research Center) was subcutaneously injected to a female SJL/J mouse in the back thereof under ether anesthesia for immunization (initial sensitization). Two days after, deactivated Bordetella pertussis was intravenously injected in an amount of about one billion per mouse. Seven days after, immunization was conducted again with the antigen. Over several weeks thereafter, abnormalities in limbs, a tail, and righting reflexes were graded into scored levels and recorded. The subjective compound was orally administered in an amount of 200 mg/kg from 5th day to 12th day after the initial sensitization. In experiments, 12 mice were used for each of a control group and a drug-administered group.
Note that, the experimental encephalomyelitis model described above is a model in which a lymphocyte activated by reacting with an immunized PLP peptide causes an immunoreaction to induce encephalomyelitis, and is widely recognized as a model for evaluating a pharmacological effect of a compound having a lymphocyte activation inhibition effect (e.g., Agents and Actions, 27, 351-355 (1989); and Agents and Actions, 35, 79-84 (1992)).

mice = experiment: Successive 15-day administration to mice (toxicity observation); type: in vivo; settings: 100 mg/kg and 200 mg/kg successively for 15 days
Text: It is thus considered that the compound represented by the general formula (I) has low toxicity.

[3] = test system: mouse collagen-induced arthritis; experiment: Effect on mouse collagen-induced arthritis; type: in vivo; settings: DBA/1JN male mouse, FIG. 1
Experimental: A DBA/1JN male mouse (7 weeks of age) was sensitized by intracutaneously injecting in the tail part thereof with 0.1 ml of an emulsion solution obtained by mixing a 0.3% bovine-derived type II collagen solution with the same amount of a Freund's complete adjuvant. After 3 weeks after initial sensitization, a booster was conducted in a similar way to cause arthritis. The subjective compound was made into a solution (5 mg/ml) according to a general method, and the day of the booster and 3 days thereafter, the solution was intravenously administered in an amount of 10 ml/kg (50 mg/kg). In experiments, 8 mice were used for each of a control group and a drug-administered group. The condition of arthritis was evaluated macroscopically on limbs and graded into 5 score levels (0; normal, 1; flare on a finger joint, 2; slight edema on an entire leg, 3; edema on an entire leg, and 4; severe edema on an entire leg), to be shown as a total sum. […] The effect lasted even after the second administration and the inhibition effect was recognized even 36 days after the initial sensitization, i.e., 12 days after administration (FIG. 1). […]

Row | SMILES | IC50 ([1]; Mus musculus, Lymphocyte) [nM] | other results
1 | CNC(=O)c1ccc(S(=O)(=O)Nc2cccc3c(Cl)c[nH]c23)cc1 [Compound 72, N-(3-Chloro-1H-indol-7-yl)-4-(N-methylcarbamoyl)-benzenesulfonamide] | 1810 | –
2 | CS(=O)(=O)NCCc1ccc(S(=O)(=O)Nc2cccc3c(Cl)c[nH]c23)cc1 [Compound 62, N-(3-Chloro-1H-indol-7-yl)-4-[2-(methanesulfonamido)ethyl]-benzensulfonamide] | 580 | –
3 | CCS(=O)(=O)Nc1ccc(S(=O)(=O)Nc2cccc3c(Cl)c[nH]c23)cc1 [Compound 70, N-(3-Chloro-1H-indol-7-yl)-4-(ethanesulfonamido)-benzenesulfonamide] | 1400 | –
4 | CC(=O)N(C)c1ccc(S(=O)(=O)Nc2cccc3c(Cl)c[nH]c23)cc1 [Compound 79, N-(3-Chloro-1H-indol-7-yl)-4-(N-methylacetamido)-benzenesulfonamide] | 360 | –
5 | N#Cc1ccc(S(=O)(=O)Nc2cccc3c(Cl)c[nH]c23)cc1 [Compound 10, N-(3-Chloro-1H-indol-7-yl)-4-cyanobenzenesulfonamide] | – | IC50 [1]: 590 nM; Onset of abnormality (limbs, tail, righting reflexes score) [2]: delayed expression of abnormality; Severity of abnormality (limbs, tail, righting reflexes score) [2]: alleviated the severity; Body weight (mice): dose-dependent weight increases; Toxicity observation (mice): no observation showing toxicity
6 | Nc1ccc(S(=O)(=O)Nc2cccc3c(Cl)c[nH]c23)cc1 [Compound 3, 4-Amino-N-(3-chloro-1H-indol-7-yl)benzenesulfonamide] | 2270 | –
7 | CCNS(=O)(=O)c1ccc(S(=O)(=O)Nc2cccc3c(Cl)c[nH]c23)cc1 [Compound 69, N-(3-Chloro-1H-indol-7-yl)-4-(N-ethylsulfamoyl)-benzenesulfonamide] | 590 | –
8 | NS(=O)(=O)c1ccc(S(=O)(=O)Nc2cccc3c(Cl)c[nH]c23)cc1 [Compound 19, N-(3-Chloro-1H-indol-7-yl)-4-sulfamoylbenzenesulfonamide] | 1830 | Effect on crisis and development of arthritis (arthritis score, total sum) ([3]; 50 mg/kg intravenously on the day of the booster and 3 days thereafter): obvious inhibition effect for the crisis and development of arthritis; Duration of the inhibition effect on arthritis, days after the initial sensitization ([3]; 50 mg/kg intravenously, i.e. 12 days after administration): ≥ 36 days
9 | CS(=O)(=O)NCc1ccc(S(=O)(=O)Nc2cccc3c(Cl)c[nH]c23)cc1 [Compound 53, N-(3-Chloro-1H-indol-7-yl)-4-[(methanesulfonamido)methyl]-benzenesulfonamide] | 740 | –
10 | Nc1ccncc1S(=O)(=O)Nc1cccc2c(Cl)c[nH]c12 [Compound 33, 4-Amino-N-(3-chloro-1H-indol-7-yl)-3-pyridinesulfonamide] | 470 | –
11 | NS(=O)(=O)CCc1ccc(S(=O)(=O)Nc2cccc3c(Cl)c[nH]c23)cc1 [Compound 35, N-(3-Chloro-1H-indol-7-yl)-4-(2-sulfamoylethyl)-benzenesulfonamide] | 670 | –
12 | NS(=O)(=O)Cc1ccc(S(=O)(=O)Nc2ccc(Cl)c3c(Cl)c[nH]c23)cc1 [Compound 77, N-(3,4-Dichloro-1H-indol-7-yl)-4-(sulfamoylmethyl)-benzenesulfonamide] | 980 | –
13 | CS(=O)(=O)Nc1ccc(S(=O)(=O)Nc2cccc3c(Cl)c[nH]c23)cc1 [Compound 4, N-(3-Chloro-1H-indol-7-yl)-4-(methanesulfonamido)-benzenesulfonamide] | 1430 | –
14 | N#Cc1c[nH]c2c(NS(=O)(=O)c3ccc(N)nc3)cccc12 [Compound 37, 6-Amino-N-(3-cyano-1H-indol-7-yl)-3-pyridinesulfonamide] | 640 | –
15 | N#Cc1ccc(S(=O)(=O)Nc2cccc3c(Cl)c[nH]c23)cc1 [Compound 28, 4-Cyano-N-(3-chloro-1H-indol-7-yl)benzenesulfonamide] | – | IC50 [1]: 2860 nM
16 | N#Cc1c[nH]c2c(NS(=O)(=O)c3cccc(Cl)c3)cccc12 [Compound 17, 3-Chloro-N-(3-cyano-1H-indol-7-yl)benzenesulfonamide] | 440 | Onset of abnormality (limbs, tail, righting reflexes score) [2]: delayed expression of abnormality; Severity of abnormality (limbs, tail, righting reflexes score) [2]: alleviated the severity; Body weight (mice): dose-dependent weight increases; Toxicity observation (mice): no observation showing toxicity
17 | NC(=O)c1ccc(S(=O)(=O)Nc2cccc3c(Cl)c[nH]c23)cc1 [Compound 29, 4-Carbamoyl-N-(3-chloro-1H-indol-7-yl)benzenesulfonamide] | 2020 | –
18 | Cc1ccc(NS(=O)(=O)c2cccc(C#N)c2)c2[nH]cc(C#N)c12 [Compound 94, 3-Cyano-N-(3-cyano-4-methyl-1H-indol-7-yl)-benzenesulfonamide] | 250 | Body weight (mice): dose-dependent weight increases; Toxicity observation (mice): no observation showing toxicity
19 | CS(=O)(=O)CCc1ccc(S(=O)(=O)Nc2cccc3c(Cl)c[nH]c23)cc1 [Compound 36, N-(3-Chloro-1H-indol-7-yl)-4-[2-(methylsulfonyl)ethyl]-benzenesulfonamide] | 780 | –
20 | N#Cc1cccc(S(=O)(=O)Nc2cccc3c(C#N)c[nH]c23)c1 [Compound 51, 3-Cyano-N-(3-cyano-1H-indol-7-yl)benzenesulfonamide] | 620 | Body weight (mice): dose-dependent weight increases; Toxicity observation (mice): no observation showing toxicity
